Results from ChEMBL document CHEMBL5046227, “Design, synthesis and bioactivity evaluation of novel evodiamine derivatives with excellent potency against gastric cancer” (Eur J Med Chem, 2022).
Activity calls are given as the source filed them. The calls are words filed in the database; no cut-off is given here.

Experiments:
SGC-7901 [1] = test: Induction of apoptosis in human SGC-7901 cells assessed as viable cells at 0.1 uM after 24 hrs by Annexin V-FITC/PI staining based flow cytometry method (reference value: 99.95%); type: functional; details: read-out: Activity
[2] = target: T1, DNA topoisomerase 1 (Homo sapiens) (UniProt P11387); test: Inhibition of topoisomerase 1 (unknown origin) assessed at 100 uM incubated for 15 mins by ethidium bromide staining based agarose gel electrophoresis method
T1 sequence (whole entry): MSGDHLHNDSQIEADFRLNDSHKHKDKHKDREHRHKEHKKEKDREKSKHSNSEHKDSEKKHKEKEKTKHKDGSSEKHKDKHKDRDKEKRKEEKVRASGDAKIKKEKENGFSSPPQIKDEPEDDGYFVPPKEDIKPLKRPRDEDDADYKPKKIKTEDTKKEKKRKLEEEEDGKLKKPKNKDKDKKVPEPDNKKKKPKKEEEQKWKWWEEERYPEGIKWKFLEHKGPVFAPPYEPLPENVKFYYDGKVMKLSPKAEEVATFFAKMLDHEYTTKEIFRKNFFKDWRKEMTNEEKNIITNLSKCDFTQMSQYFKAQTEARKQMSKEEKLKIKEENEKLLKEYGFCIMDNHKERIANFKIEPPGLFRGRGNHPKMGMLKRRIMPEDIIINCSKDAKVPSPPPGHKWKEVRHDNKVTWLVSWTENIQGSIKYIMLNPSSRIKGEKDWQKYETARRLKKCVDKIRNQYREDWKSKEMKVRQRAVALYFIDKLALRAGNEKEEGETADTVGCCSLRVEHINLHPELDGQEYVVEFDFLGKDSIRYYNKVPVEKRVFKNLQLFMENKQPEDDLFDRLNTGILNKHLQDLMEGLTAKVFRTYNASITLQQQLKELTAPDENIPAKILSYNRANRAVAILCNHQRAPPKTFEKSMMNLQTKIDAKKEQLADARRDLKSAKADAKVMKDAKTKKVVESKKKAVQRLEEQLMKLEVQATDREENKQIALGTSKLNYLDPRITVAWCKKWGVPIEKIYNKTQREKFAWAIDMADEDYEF

SGC-7901 [3] = test: Induction of apoptosis in human SGC-7901 cells assessed as early apoptic cells at 0.1 uM after 24 hrs by Annexin V-FITC/PI staining based flow cytometry method (reference value: 0.01%); type: functional
[4] = target: T1, DNA topoisomerase 1 (Homo sapiens); test: Inhibition of topoisomerase 1 (unknown origin) assessed as relaxation of supercoiled plasmid pBR322 DNA at 50 uM incubated for 15 mins by ethidium bromide staining based agarose gel electrophoresis method
SGC-7901 [5] = test: Induction of apoptosis in human SGC-7901 cells assessed as chromatin condensation incubated for 24 hrs by Giemsa staining method; type: functional, cell-based
SGC-7901 [6] = test: Induction of apoptosis in human SGC-7901 cells assessed as necrotic cells at 0.3 uM after 24 hrs by Annexin V-FITC/PI staining based flow cytometry method (reference value: 0.01%); type: functional
MGC-803 [7] = test: Induction of apoptosis in human MGC-803 cells assessed as late apoptic cells at 0.9 uM after 24 hrs by Annexin V-FITC/PI staining based flow cytometry method (reference value: 0.05%); type: functional
[8] = target: T1, DNA topoisomerase 1 (Homo sapiens); test: Inhibition of topoisomerase 1 (unknown origin) assessed as relaxation of supercoiled plasmid pBR322 DNA at 25 uM incubated for 15 mins by ethidium bromide staining based agarose gel electrophoresis method
SGC-7901 [9] = test: Induction of apoptosis in human SGC-7901 cells assessed as late apoptic cells at 0.3 uM after 24 hrs by Annexin V-FITC/PI staining based flow cytometry method (reference value: 0.03%); type: functional
MGC-803 [10] = test: Induction of apoptosis in human MGC-803 cells assessed as viable cells at 0.3 uM after 24 hrs by Annexin V-FITC/PI staining based flow cytometry method (reference value: 99.9%); type: functional; details: read-out: Activity
MGC-803 [11] = test: Antimigratory activity against human MGC-803 cells assessed as inhibition on cell migration at 0.1 to 0.9 uM measured after 24 hrs by transwell assay; type: functional, cell-based; details: dose 0.1-0.9 µM
MGC-803 [12] = test: Induction of apoptosis in human MGC-803 cells assessed as formation of apoptotic bodies measured after 24 hrs by Hoechst 33342 staining based fluorescence microscopic analysis; type: functional, cell-based
[13] = Acute toxicity in Kunming mouse assessed as death at 1000 mg/kg, ip measured for 14 days; type: organism-based; details: in vivo, 336 h, time 14 day
Kidney = test: Acute toxicity in Kunming mouse assessed as effect on kidney at 1000 mg/kg, ip measured for 14 days by H and E staining based histological analysis; type: organism-based; details: in vivo, 336 h, time 14 day
SGC-7901 [14] = test: Antiproliferative activity against human SGC-7901 cells assessed as reduction in EdU positive cells at 0.03 to 0.3 uM measured after 24 hrs by EdU incorporation assay; type: functional, cell-based; details: dose 0.03-0.3 µM
MGC-803 [15] = test: Induction of apoptosis in human MGC-803 cells assessed as late apoptic cells at 0.1 uM after 24 hrs by Annexin V-FITC/PI staining based flow cytometry method (reference value: 0.05%); type: functional
MGC-803 [16] = test: Induction of apoptosis in human MGC-803 cells assessed as viable cells at 0.9 uM after 24 hrs by Annexin V-FITC/PI staining based flow cytometry method (reference value: 99.9%); type: functional; details: read-out: Activity
MGC-803 [17] = test: Antiproliferative activity against human MGC-803 cells assessed as reduction in cell viability at 18 uM measured after 24 hrs by MTT assay; type: functional
[18] = Acute toxicity in BALB/c nude mouse xenografted with human MGC-803 cells assessed as effect on RBC level at 50 mg/kg, ip for 16 days (reference value: 12.05 +/- 1 x10^12/L); type: organism-based, Erythrocyte; details: in vivo, 384 h, time 16 day
SGC-7901 [19] = test: Induction of apoptosis in human SGC-7901 cells assessed as viable cells at 0.3 uM after 24 hrs by Annexin V-FITC/PI staining based flow cytometry method (reference value: 99.95%); type: functional; details: read-out: Activity
MGC-803 [20] = test: Induction of apoptosis in human MGC-803 cells assessed as early apoptic cells at 0.9 uM after 24 hrs by Annexin V-FITC/PI staining based flow cytometry method (reference value: 0%); type: functional
SGC-7901 [21] = test: Antimigratory activity against human SGC-7901 cells assessed as inhibition on cell migration at 0.1 to 0.9 uM measured after 24 hrs by transwell assay; type: functional, cell-based; details: dose 0.1-0.9 µM
MGC-803 [22] = test: Antiinvasive activity against human MGC-803 cells assessed as reduction in cell invasion at 0.03 to 0.3 uM incubated for 24 hrs by matrigel-coated transwell assay; type: functional, cell-based; details: dose 0.03-0.3 µM
MGC-803 [23] = test: Antimigratory activity against human MGC-803 cells assessed as inhibition on cell migration at 0.1 to 0.9 uM measured after 24 hrs by scratch wound-healing assay; type: functional, cell-based; details: dose 0.1-0.9 µM
MGC-803 [24] = test: Induction of apoptosis in human MGC-803 cells assessed as early apoptic cells at 0.1 uM after 24 hrs by Annexin V-FITC/PI staining based flow cytometry method (reference value: 0%); type: functional
[25] = Toxicity in BALB/c nude mouse xenografted with human MGC-803 cells assessed as change in body weight at 50 mg/kg, ip for 16 days; type: organism-based; details: in vivo, 384 h, time 16 day
Lung = test: Acute toxicity in Kunming mouse assessed as effect on lungs at 1000 mg/kg, ip measured for 14 days by H and E staining based histological analysis; type: organism-based; details: in vivo, 336 h, time 14 day

With `Cc1ccc2c(c1)C(=O)N1CCc3c([nH]c4ccc(C)cc34)C1N2c1cccc(F)c1` (configuration not stated) the viability at 0.1 µM (SGC-7901 [1]) was 93.4%, the inhibition [2] was 80.8% and the Activity (SGC-7901 [3]) was 2.06%. The inhibition [4] was 80.7%, the Activity (SGC-7901 [5]) was “Active” and the Activity (SGC-7901 [6]) was 0.16%. The Activity (MGC-803 [7]) was 55.99%, the inhibition [8] was 37.7% and the Activity (SGC-7901 [9]) was 8.46%. For the same compound, the viability at 0.3 µM (MGC-803 [10]) was 37.9%, the Activity (MGC-803 [11]) was “Active” and the Activity (MGC-803 [12]) was “Active”. For the same compound, the Activity [13] was “Non-Toxic”, the Activity (Kidney) was “Non-Toxic” and the Activity (SGC-7901 [14]) was “Dose-Dependent Effect”. It also gave an Activity (MGC-803 [15]) of 28.21%, a viability at 0.9 µM (MGC-803 [16]) of 11.7% and an Activity (MGC-803 [17]) of 80%. For the same compound, the Activity [18] was 10.86 10^12/L, the viability at 0.3 µM (SGC-7901 [19]) was 87.4% and the Activity (MGC-803 [20]) was 32.51%. The Activity (SGC-7901 [21]) was “Active”, the Activity (MGC-803 [22]) was “Active” and the Activity (MGC-803 [23]) was “Active”. The Activity (MGC-803 [24]) was 6.79%, the Activity [25] was “Non-Toxic” and the Activity (Lung) was “Non-Toxic”.
